What was measured:
[1] = system: SV40-transformed MRC-5 human fetal lung fibroblasts; experiment: Apoptosis assays in SV40-transformed MRC-5 fibroblasts; type: cell-based; settings: 24 hours
Procedure: (§1) Immunoblotting was performed as described with antibodies specific for p53 (sc-126 HRP; Santa Cruz), hdm2 (sc-965; Santa Cruz), p21 (556431; BD Pharmingen), Sp1 (sc-59; Santa Cruz), survivin (sc-10811; Santa Cruz), phospho RNA polymerase II (4735; Cell Signaling), total RNA polymerase II (8WG16; a gift from Dr. Schlegel, University of Illinois at Chicago), α-tubulin (T9026; Sigma), cleaved caspase-3 (9664; Cell Signaling), caspase-9 (9502; Cell Signaling) and β-actin (A5441; Sigma) antibodies.
(§2) Apoptosis was detected either by DAPI (4′,6-diamidino-2-phenylindole) staining or by Flow Cytometry after PI (Propidium Iodide) staining. For DAPI staining, all treatments (DMSO or ARC) were done in triplicates in 6-well plates and cells were stained with DAPI and visualized by fluorescent microscopy. Four random fields for each sample were photographed and at least 500 cells per field were counted to estimate apoptosis. The data is represented as mean±Standard deviation (sd).
(§3) The ability of ARC to induce apoptosis in wild type and SV40-transformed MRC-5 human fetal lung fibroblasts was evaluated. Twenty-four hours after treatment with ARC, transformed fibroblasts underwent robust apoptosis (around 50% and 70%, respectively, with 5 and 10 μM of ARC) (FIGS. 4A and B). […] The transformed cell types may be more dependent on the survivin levels for their survival than their wild type counterparts and thus the reduction in these levels could be lethal to these cells.

[2] = system: leukemia cell lines CEM, HL-60, NB4 and U937; experiment: TMRE staining and flow cytometry of leukemia cells; type: cell-based; settings: 5 μM, 24 hours
Procedure: FIG. 7. ARC induces mitochondrial injury in leukemia cells. Different leukemia cells were either treated with DMSO (gray) or 5 μM ARC (white) for 24 hours, stained with TMRE (tetramethyl rhodamine ethyl ester) and subjected to flow cytometry. CEM cells are shown in panel (A), HL-60 in panel (B), NB4 in panel (C) and U937 in panel (D). The shift in the peak from right (DMSO; gray) to left (ARC-treated; white) is due to the lower intake of the dye caused by the loss in mitochondrial potential.
In order to further probe the mechanism of ARC-induced apoptosis, whether or not ARC causes mitochondrial injury was investigated. Permeabilization of mitochondria, followed by cytochrome c release has previously been observed for transcriptional inhibitor flavopiridol. For this analysis, leukemia cell lines CEM, HL-60, NB4 and U937 were treated with either DMSO or ARC. […] It is well known that the Bcl2 family members (eg., Bcl-2, Bcl-XL, Mcl-1) protect the mitochondrial integrity, thereby acting in an anti-apoptotic manner. It is possible that ARC modulates the expression of one or more of these proteins to cause mitochondrial injury.

[3] = system: wild type MRC-5 human fetal lung fibroblasts; experiment: Apoptosis and cell cycle assays in wild type MRC-5 fibroblasts; type: cell-based; settings: for cell cycle profile: 20 μM
Procedure: as §1, §2
For Flow Cytometry, cells were fixed in 70% ethanol and stored at −20° C. until further analysis. Equal numbers of fixed cells were then stained with PI solution (0.1% Triton X-100, 0.2 mg/ml DNase free RNase, 0.02 mg/ml propidium iodide) made in PBS for 15 min at 37° C. and analyzed by a flow cytometer.
as §3
Moreover, the effect of 20 μM ARC treatment on wild type fibroblasts was analyzed and little change was found in the cell cycle profile after 24 hours (data not shown) and the cells undergo G2-arrest after 48 hours (FIG. 4D).

p53 = experiment: Gel shift assay with purified p53 phosphorylated by P-TEFb; type: binding; settings: purified p53, different concentrations
Procedure: Either purified p53 protein or nuclear extracts were used in the gel shift assays. For preparation of nuclear extracts, cells treated either with DMSO or different agents (doxorubicin, ARC and actinomycin D) were harvested 24 hours later and lysed in hypotonic buffer (10 mM HEPES pH 7.9, 1.5 mM MgCl2, 10 mM KCl, 0.2 mM PMSF, 0.5 mM DTT, 1 mM Na3VO4, 1 mM NaF, 1 mM Aprotinin and 1 mM Leupeptin), nuclei pelleted and treated with high-salt buffer (20 mM HEPES pH 7.9, 20% (v/v) glycerol, 1.5 mM MgCl2, 0.5 M KCl, 0.2 mM EDTA, 0.2 mM PMSF, 0.5 mM DTT, 1 mM Na3VO4, 1 mM NaF, 1 mM Aprotinin and 1 mM Leupeptin). Nuclear extracts (10 μg) or purified p53 protein (100 ng) were incubated with 0.5 ng of p53 consensus double-stranded oligos (5′-TACAGAACATGTCTAAGCATGCTGGGGACT-3′; Santa Cruz Biotechnology) that were labeled with [γ^32P]ATP. As a control, anti-p53 antibody (PAb421, EMD Biosciences) was used to supershift the p53/DNA complex. The reaction mixtures were resolved on a 4% acrylamide DNA-retardation gel, dried and exposed to X-ray film in the presence of intensifying screen.
In order to evaluate this activity, an in vitro kinase assay was performed with purified p53 protein and P-TEFb in the presence of different concentrations of ARC.

[4] = system: MCF-7 breast cancer cells; experiment: Apoptosis assays in MCF-7 breast cancer cells; type: cell-based, human
Procedure: as §1, §2
In order to further characterize ARC with respect to its apoptotic potential, cell lines derived from cancers of different origin were utilized. MCF-7 breast cancer cells underwent apoptosis (around 45% and 55%, respectively, with 10 and 20 μM of ARC) after 24 hours of treatment (FIGS. 5A and 5B). […] To evaluate the extent to which ARC-mediated apoptosis is p53-dependent, an MCF-7 cell line that stably expresses a short hairpin RNA (shRNA) targeting p53 (MCF-7-p53si) was used.

[5] = system: LIM1215 colon cancer, AGS gastric cancer and HepG2 liver cancer cells; experiment: Cleaved caspase-3 immunoblot in cancer cell lines of different origin; type: cell-based, human; settings: 48 hours
Procedure: as §1

In the case of `NNc1c(C(N)=O)c2c(N)ncnc2n1[C@@H]1O[C@H](CO)[C@@H](O)[C@H]1O` [ARC, 4-amino-6-hydrazino-7-beta-D-ribofuranosyl-7H-pyrrolo[2,3-d]-pyrimidine-5-carboxamide], the “apoptosis (DAPI staining)” value ([1]; 5 μM) was “around 50%”, the “apoptosis (DAPI staining)” value ([1]; 10 μM) was roughly 70% and the “cleaved caspase-3” value [1] was “appearance of cleaved caspase-3 was observed”. For the same compound, the survivin levels ([1]; wild type and SV40-transformed MRC-5 fibroblasts) was “further reduced”, the “mitochondrial potential (TMRE)” value [2] was “mitochondrial depolarization” and the cell cycle profile ([3]; 24 hours) was “little change”. The cell cycle profile ([3]; 48 hours) was “G2-arrest”, the cell killing ([3]; 10 or 20 μM, 24 hours) was “not susceptible to ARC-mediated cell killing” and the “DNA binding of p53 phosphorylated by P-TEFb” value (p53) was “inhibited this process in a dose-dependent manner”. For the same compound, the “apoptosis (DAPI staining)” value ([4]; 10 μM, 24 hours) was “around 45%”, the “apoptosis (DAPI staining)” value ([4]; 20 μM, 24 hours) was roughly 55% and the “cleavage of caspase-9” value ([4]; MCF-7, 24 hours) was “cleavage of caspase-9 upon ARC treatment was observed”. The “cleavage of caspase-9” value ([4]; MCF-7-p53si cells (shRNA targeting p53), 24 hours) was “Cleavage of caspase-9 was detected”, the “cleavage of caspase-3” value ([5]; HepG2 with stable knock-down of p53, 20 μM) was “showed cleavage of caspase-3” and the “cleavage of caspase-3” value ([5]; LIM1215, AGS and HepG2 cells, 20 μM) was “cleavage of caspase-3 were detected”.

— patent US8207136B2, “Nucleoside compounds and methods of use thereof” (The Board of Trustees of the University of Illinois, priority 2005, dated 2012)
